What all share (assay type): cell-based, Murine
Assay [1] relates to ESCs. The assay can be described thus: ESC reseeding and proliferation on decellularized ECMs (specific growth rate). On the procedure: (§1) To assess cell proliferation, ESCs of 0.5×10^5 per mL were seeded on the decelluarized ECMs and cultivated for 4 days in expansion media without LIF (FIG. 1). […] Cell numbers were determined at days 0, 2, and 4 using a hemocytometer after trypsin/EDTA dissociation. The specific growth rates were calculated as the slope of the proliferation curve. Cell viability was determined by the incubation with 5 mg/mL 3-(4,5-Dimethylthiazol-2-yl)-2,5-diphenyltetrazolium bromide (MTT, Sigma) solution. Afterwards, the formazan crystals were hydrolyzed with dimethyl sulfoxide (Sigma) and measured at 500 nm using a microplate reader. For the test of RA signaling, soluble RA (1 μM) or BMS 493 (1 μM, Santa Cruz), a pan-RAR antagonist, was supplemented in the media. To assess the differentiation ability after culturing on the decellularized ECMs, ESCs were replated on 0.1% gelatin-coated 12-well plates and cultured for 7 days in differentiation medium without any inducing growth factors. The cells were evaluated for the expression of Nestin (ectoderm), β-tubulin III (ectoderm), α-actinin (mesoderm), and FOXA2 (endoderm).

The subject of assay [2] is ESCs. The assay can be described thus: Oct-4 expression of reseeded ESCs by flow cytometry. On the procedure: as §1
For flow cytometry, 1×10^6 cells per sample were fixed with 4% PFA and washed with staining buffer (2% FBS in PBS). […] The cells were acquired with BD FACSCANTO II flow cytometer (Becton Dickinson) and analyzed against isotype controls using FlowJo software.

Assay [3] deals with ESCs. The assay can be described thus: Three-germ layer differentiation of ESCs grown on decellularized ECM scaffolds. On the procedure:
(§2) To detect differentiation markers, the cells were incubated with mouse or rabbit primary antibody against: Nestin (Millipore), β-tubulin III (Sigma), α-actinin (sarcomeric, Sigma), or FOXA2 (Millipore). After washing, the cells were incubated with the corresponding secondary antibody: ALEXA FLUOR 488 goat anti-Mouse IgG1 (for Nestin and α-actinin) or IgG2b (for β-Tubulin III), or ALEXA FLUOR 488 goat anti-Rabbit IgG (for FOXA2). The localization of RAR-α was also assessed using goat anti-Rabbit RAR-α antibody (Abcam) detected by ALEXA FLUOR 594 donkey anti-Goat IgG.
as §1
For flow cytometry, 1×10^6 cells per sample were fixed with 4% PFA and washed with staining buffer (2% FBS in PBS). The cells were stained with DNA-intercalating dye ethidium monoazide bromide (EMA, Sigma) and permeabilized with 100% cold methanol. The samples were incubated with primary antibodies against Oct-4 (Millipore), Nestin, β-tubulin III, α-actinin, or FOXA2 followed by the corresponding secondary antibody: ALEXA FLUOR 488 goat anti-Mouse IgG1 (for Oct-4, Nestin, and α-actinin) or IgG2b (for β-tubulin III), or ALEXA FLUOR 488 goat anti-Rabbit IgG (for FOXA2). The cells were acquired with BD FACSCANTO II flow cytometer (Becton Dickinson) and analyzed against isotype controls using FlowJo software.

The test system of assay [4] is ESC-derived NPCs. Briefly: NPC proliferation assays on ECM scaffolds (fold expansion, MTT). Conditions: NPCs on DE-EC and DE-NG scaffolds, BMS 493 1 μM, FIG. 17A. The method, then:
For various ECM scaffolds, 1×10^6 dissociated NPCs or intact NPC aggregates derived from ESCs were reseeded on the ECM scaffolds and cultivated for 3-4 days in DMEM-F12 containing 2% B27. The cells were analyzed for colonization on the scaffolds, proliferation, and viability. To study the effect of retinoid signaling, BMS 493 (1 μM, Santa Cruz), a pan-retinoic acid receptor (RAR) antagonist, was supplemented in the media for some experiments.
Cell proliferation assays: Cell numbers were determined at days 3 using a hemocytometer after trypsin/EDTA dissociation for fold expansion. Cell proliferation kinetics was also determined by incubating with 5 mg/mL 3-(4,5-Dimethylthiazol-2-yl)-2,5-diphenyltetrazolium bromide (MTT, Sigma) solution. Afterwards, the formazan crystals were hydrolyzed with dimethyl sulfoxide (Sigma) and measured at 500 nm using a microplate reader.

Assay [5] has as its system ESC-derived NPCs. Briefly: Neural marker expression of reseeded NPCs by flow cytometry. The following applies: for GFAP expression upon BMS 493 treatment: FIG. 17D. On the procedure: For various ECM scaffolds, 1×10^6 dissociated NPCs or intact NPC aggregates derived from ESCs were reseeded on the ECM scaffolds and cultivated for 3-4 days in DMEM-F12 containing 2% B27. The cells were analyzed for colonization on the scaffolds, proliferation, and viability. To study the effect of retinoid signaling, BMS 493 (1 μM, Santa Cruz), a pan-retinoic acid receptor (RAR) antagonist, was supplemented in the media for some experiments. After 3 days of culture in suspension, the NPC-ECM constructs were replated in 24-well plates coated with Geltrex™, the LDEV-Free Reduced Growth Factor Basement Membrane Matrix (Life Technologies), for another 3 days. The differentiation was assessed by immunocytochemistry for neural markers. […] The samples were then blocked and incubated with mouse or rabbit primary antibody against: Nestin (Sigma) or Musashi-1 (Abcam) for neural progenitors, β-tubulin III (Millipore) for neurons, or GFAP (Millipore) for astrocytes. After washing, the cells were incubated with the corresponding secondary antibody: Alexa Fluor® 488 goat anti-Mouse IgG1 for GFAP and β-tubulin III, or Alexa Fluor® 488 goat anti-Rabbit IgG for Nestin and Musashi-1 (Molecular Probes). The samples were mounted with 4′,6-Diamidino-2-Phenylindole (DAPI) and visualized using a fluorescent microscope. To quantify the levels of neural marker expression, the cells on ECM scaffolds were harvested by trypsinization and analyzed by flow cytometry. Briefly, 1×10^6 cells per sample were fixed with 4% PFA and washed with staining buffer (2% FBS in PBS). […] Alexa Fluor® 488 goat anti-Mouse IgG1 (for GFAP and β-tubulin III) or Alexa Fluor® 488 goat anti-Rabbit IgG (for Nestin and Musashi-1). The cells were acquired with BD FACSCanto™ II flow cytometer (Becton Dickinson) and analyzed against isotype controls using FlowJo software.

Assay [6] deals with T1, RAR-α (Mus musculus, UniProt P11416).
T1 construct: Localization of RAR-α in ESC monolayers with or without RA treatment; endogenous in cells; host or cells: embryonic stem cells (monolayers, or reseeded on DE-RA10 scaffolds)
T1 sequence (P11416 1-462): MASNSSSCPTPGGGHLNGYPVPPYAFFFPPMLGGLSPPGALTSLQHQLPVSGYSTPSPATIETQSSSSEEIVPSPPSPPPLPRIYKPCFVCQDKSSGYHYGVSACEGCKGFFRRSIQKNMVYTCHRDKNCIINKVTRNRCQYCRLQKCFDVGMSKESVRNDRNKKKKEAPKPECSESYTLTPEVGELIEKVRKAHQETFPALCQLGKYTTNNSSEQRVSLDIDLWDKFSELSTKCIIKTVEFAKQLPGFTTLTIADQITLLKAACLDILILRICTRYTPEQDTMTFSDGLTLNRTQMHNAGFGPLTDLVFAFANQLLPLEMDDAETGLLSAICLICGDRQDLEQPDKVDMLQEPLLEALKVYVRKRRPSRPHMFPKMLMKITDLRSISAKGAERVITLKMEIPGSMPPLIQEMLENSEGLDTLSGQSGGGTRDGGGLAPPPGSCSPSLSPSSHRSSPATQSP
Briefly: RAR-α localization in ESCs by immunocytochemistry. The following applies: ESCs on DE-RA10 without soluble RA; ESC monolayers exposed to soluble RA, FIG. 8A. On the procedure: as §2
as §1, with “For the test of RA signaling, soluble RA (1 μM) or BMS 493 (1 μM, Santa Cruz), a pan-RAR antagonist, was supplemented in the media. To assess the differentiation ability after culturing on the decellularized ECMs, ESCs were replated on 0.1% gelatin-coated 12-well plates and cultured for 7 days in differentiation medium without any inducing growth factors.” left out

The mark [7] stands for this setting: BMS 493 (1 μM) added in the DE-RA10 culture, FIG. 8C.
Setting [8] is: BMS 493 treated vs untreated, ESCs on DE-RA10, FIG. 8E.
The mark [9] stands for this setting: FIG. 8E: ESCs on DE-RA10 with or without BMS 493 (1 μM).
The mark [10] stands for this setting: FIG. 8B: cells in DE-RA10 vs cells in DE-SE10 treated with soluble RA (1 μM).
Setting [11] is: FIG. 8D: ESCs on DE-RA10 vs ESCs treated by soluble RA.

On to `CC1(C)CC=C(C#Cc2ccccc2)c2cc(/C=C/c3ccc(C(=O)O)cc3)ccc21` [BMS 493], for which, in assay [1] (setting [7]), the ESC proliferation result is recorded as “reduced ESC proliferation”. Moreover, in assay [2] (setting [7]), the Oct-4 expression entry is reported as “not Oct-4 expression”. In assay [3] (setting [8]), the Nestin expression result is recorded as “increased” and the “β-tubulin III expression” value was “similar”. Besides, in assay [3] (setting [9]), the “expression of FOXA2” value is 24% and the “expression of α-actinin” value is 3%. In assay [4], the “cell proliferation after BMS 493 treatment” value was “reduced the cell proliferation”. Also, in assay [5] (DE-EC condition), the “GFAP expression upon BMS 493 treatment” value is “increased GFAP expression”. For the same compound, the “neural marker expression upon BMS 493” value in assay [5] (NPCs, DE-AC group) was “no changes in neural marker expression”. Moreover, the “Nestin expression upon BMS 493 treatment” value in assay [5] (NPCs, DE-EC and DE-NC conditions, FIG. 17B) was “increased”. The “β-Tubulin III expression upon BMS 493 treatment” value in assay [5] (cells from DE-NC scaffold, FIG. 17C) is reported as “significant decrease”. Further, in assay [5] (cells from DE-NC scaffold), the “GFAP expression upon BMS 493 treatment” value is “significant decrease”.

The compound `CC1=C(/C=C/C(C)=C/C=C/C(C)=C/C(=O)O)C(C)(C)CCC1` [soluble RA, all-trans retinoic acid] had a specific growth rate in assay [1] (setting [10]) of -0.013 h⁻¹. The compound further displayed an Oct-4 expression in assay [2] (setting [10]) of 10.1%. Also, in assay [3] (setting [11]), the Nestin expression was determined as 32% and the “β-tubulin III expression” value turned out to be 25%. Moreover, the “localization of RAR-α” value in assay [6] was “translocation of RAR-α from cytoplasm to cell nucleus was confirmed”.

These data come from patent US10035980B2, “Extracellular matrix derived from stem cells and methods for production” (FLORIDA STATE UNIVERSITY RESEARCH FOUNDATION, INC., priority 2013, dated 2018).
